From patent publication US8153773B2, “Synthesis and use of anti-reverse phosphorothioate analogs of the messenger RNA cap” (Board of Supervisors of Louisiana State University and …, priority 2007, dated 2012) come the findings set out here.

“Also recorded” adds a separate entry of the source.

Test [1] has as its target hDcp2 (Homo sapiens, UniProt Q8IU60). Description: In vitro RNA decapping assay with recombinant hDcp2. The format is biochemical. The conditions noted are these: for hydrolysis of capped oligonucleotide by hDcp2: capped 32P-labeled short RNA, recombinant hDcp2, anion exchange HPLC (FIG. 6); for Dcp2 susceptibility: radioactivity in pGp* as a percentage of total cap radioactivity, capped oligonucleotides digested with hDcp2. As to the method: Dcp2 activity was measured with capped 48-nt oligonucleotides as substrates, a truncated form of luciferase mRNA (48 nucleotides). GST-hDcp2 was expressed in Escherichia coli and purified as described by Z. Wang et al., “The hDcp2 protein is a mammalian mRNA decapping enzyme,” Proc. Natl. Acad. Sci. U.S.A., vol. 99, pp. 12663-12668 (2002). Capped oligonucleotides were first subjected to digestion with GST-hDcp2 at 37° C. for 2 h in decapping buffer (10 mM Tris-HCl, pH 7.5, 100 mM potassium acetate, 2 mM magnesium acetate, 0.5 mM MnCl2, 2 mM dithiothreitol, and 0.1 mM spermine). See C. Piccirillo et al., “Functional characterization of the mammalian mRNA decapping enzyme hDcp2,” RNA, vol. 9, pp. 1138-1147 (2003). The reaction mixture was then extracted once with an equal volume of phenol and twice with chloroform, and RNA was precipitated with ethanol. Products of the decapping reaction were further digested with a cocktail of ribonucleases (RiboShredder; Epicentre) at 37° C. for 1 h. The products were resolved by anion-exchange HPLC on a 4.6×250-mm Partisil 10SAX/25 column (Whatman). The gradient consisted of water for 1 min, a linear gradient to 112 mM KH2PO4, pH 4.5, for 20 min, a linear gradient of 112-450 mM KH2PO4 for 15 min, a linear gradient of 450 mM to 1.5 M KH2PO4 for 15 min, and isocratic elution at 1.5 M of KH2PO4 for 9 min, all at a flow rate 1 ml/min.
We tested oligonucleotides capped with either of S-ARCAs for hydrolysis by recombinant hDcp2 to test whether mRNA capped with the various diastereomers of m2^7,2′-OGpppsG and m2^7,2′-OGppspG would differ in their sensitivity to cleavage by Dcp1/Dcp2. See generally Z. Wang et al., “The hDcp2 protein is a mammalian mRNA decapping enzyme,” Proc. Natl. Acad. Sci. U.S.A., vol. 99, pp. 12663-12668 (2002), and Z. Wang et al., “An mRNA Stability Complex Functions with Poly(A)-Binding Protein To Stabilize mRNA In Vitro”, Mol. Cell. Biol., vol. 19, pp. 4552-4560 (1999). Cap analogs used were initially unlabeled, so to follow the products of the digestion reaction we synthesized capped oligonucleotides in the presence of [α-^32P]GTP and a DNA template in which G was the first ribonucleotide specified after the promoter. The oligonucleotides capped with either of the S-ARCAs were subjected to Dcp2 digestion in vitro, after which the products were further digested with a cocktail of ribonucleases (RiboShredder from Epicenter). Any nucleotide on the 5′ side of a G residue acquired a ^32P-labeled 3′-phosphate group after ribonuclease digestion by nearest-neighbor transfer. Anion exchange chromatography was then used to resolve the labeled 3′-nucleoside monophosphates (3′-NMP*), at internal positions in the RNA, from labeled 5′-terminal products (FIG. 6). The latter comprise p3 Gp* derived from uncapped transcripts and m2^7,2′-OGp3 Gp* (when m2^7,2′-OGp3G was used), or pGp* resulting from capped RNA resistant or nonresistant to enzymatic cleavage, respectively. All cap analogs used were ARCAs, which ensured that they were incorporated into RNA exclusively in the correct orientation. This further guaranteed that only one 5′-terminal product (m2^7,2′-OGp3 Gp*) was observed upon ribonuclease treatment. Uncapped RNA is not a substrate for Dcp2, which explains why p3 Gp* product was observed after Dcp2 digestion.
See E. Grudzien et al., “Differential inhibition of mRNA degradation pathways by novel cap analogs,” J. Biol. Chem., vol. 281, pp. 1857-1867 (2006).

For test [2], the system named is HC11 cells. Description: Translational efficiency of capped luciferase mRNA in HC11 cells. The format is cell-based, mouse. The conditions noted are these: Luc-A60 mRNA capped with the analog in HC11 cells, relative to m^7Gp3G-capped mRNA. Here is the method: Two methods, electroporation and nucleoporation, were used to deliver RNA into cells. In case of electroporation, 5 μg of RNA were introduced into 10^7 HC11 cells in a total volume 400 μl of serum-reduced RPMI 1640 medium in a Gene pulser cuvette (4 mm gap) with a Bio-Rad Genepulser™ set at 0.22 kV and 960 μF. Following discharge, the cells were washed twice with PBS, centrifuged for 2 min 300×g at room temperature, resuspended in prewarmed complete medium, and placed at 37° C. Nucleoporation was performed with an Amaxa Nucleofector II (Amaxa Biosystems) in accordance with manufacture's recommendations. One microgram of RNA was introduced into 10^6 HC11 cells with Nucleofector Solution V and the set of recommended regimens (program T-024).
For measurement of translational efficiency, cells were divided into several Eppendorf tubes, placed in a water bath at 37° C., and shaken. For measurement of mRNA stability, cells were distributed into 35-mm cell culture dishes and placed at 37° C. in a 5% CO2 humidified atmosphere. Cells were harvested at various times and washed twice with PBS.
For cytoplasmic RNA extraction, 2×10^5 cells were lysed in 175 μl of lysis buffer (50 mM Tris-HCl, pH 8.0, 140 mM NaCl, 1.5 mM MgCl2, 0.5% (v/v) Igepal (Sigma), and 1 mM dithiothreitol). RNAs were further purified using the RNeasy mini kit. For protein extraction, 2×10^5 cells were lysed in 200 μl of Luciferase Cell Culture Lysis Reagent (Promega). Luciferase activity of cell extracts was measured according to the manufacturer's protocol (Promega).
We also determined the translational efficiency in cultured cells for luciferase mRNA capped with S-ARCAs. This involved two measurements conducted at various times following nucleoporation—luciferase activity measured by luminometry in cleared cell lysates, and Luc-A60 levels measured by real-time PCR. Luciferase activity was normalized by the amount of luciferase mRNA that had been delivered into cells. To determine the amount of RNA present in the cells at a time immediately after nucleoporation, i.e., before any decay had occurred, cells were harvested at various times between 2 to 8 h post-nucleoporation, and cytoplasmic RNA was extracted. The amount of luciferase mRNA was measured by real time PCR using primers that amplify sequences near the 5′-end. Luciferase mRNA remaining at each time point was plotted as log10 ([RNA]) versus time to determine t1/2. The curve was extrapolated to 0 h, and the amount of RNA delivered into the cells was calculated. We defined conditions under which the accumulation of luciferase was linear with time, after an initial lag period of ˜30 min for recruitment of mRNA to ribosomes, completing the first polypeptide chain, and release of luciferase into the cytosol.

Consider `CO[C@@H]1[C@H](O)[C@@H](COP(=O)(O)OP(=O)([O-])OP(=O)(O)OC[C@H]2O[C@@H](n3cnc4c(=O)[nH]c(N)nc43)[C@H](O)[C@@H]2O)O[C@H]1n1c[n+](C)c2c(O)nc(N)nc21` [m2^7,2′-OGpppG, reference compound], for which, in test [1], the “hydrolysis of capped oligonucleotide by hDcp2” value (from here on “hydrolysis”) is reported as “completely digested” and the Dcp2 susceptibility is 100%. In test [2], this compound gave a Relative translational efficiency of 2.1 ± 0.2.
For the compound m2^7,2′-OGpppsG (D1) [Compound 4a], the Dcp2 susceptibility in test [1] is 96%. The compound further registered a Relative translational efficiency in test [2] of 2.5 ± 0.8.
In the same order, the values of m2^7,2′-OGpppsG (D2) [Compound 4b] are 98% and 1.8 ± 0.4.
Consider m2^7,2′-OGppspG (D1) [Compound 5a], for which, in test [1], the “hydrolysis” value is given as “much more susceptible to Dcp2 than its D2 counterpart” and the Dcp2 susceptibility turned out to be 71%. Besides, the Relative translational efficiency in test [2] (listed as m2^7,2′-OGppSpG (D1)) came out at 2.8 ± 0.3. This compound also came in with a Relative translational efficiency in test [2] (listed as m2^7,2′-OGppspG (D1)) of 2.8.
On to m2^7,2′-OGppspG (D2) [Compound 5b], for which the “hydrolysis” value in test [1] is “stabilized RNA against hDcp2 hydrolysis; also recorded: resistant to hDcp2 hydrolysis”. The Dcp2 susceptibility in test [1] worked out at 6%. Moreover, the Relative translational efficiency is reported as 5.1 ± 0.5 in test [2] (listed as m2^7,2′-OGppSpG (D2)) and 5.1 in test [2] (listed as m2^7,2′-OGppspG (D2)).
On to m2^7,2′-OGpsppG (D1) [Compound 6a], for which the Dcp2 susceptibility in test [1] is 84%. The Relative translational efficiency in test [2] worked out at 2.0 ± 0.1.
m2^7,2′-OGpsppG (D2) [Compound 6b]: the Dcp2 susceptibility in test [1] was 91%. In test [2], this compound displayed a Relative translational efficiency of 1.9 ± 0.1.
